Reference: patent US9260760B2, “Method for determining complete response to anticancer therapy” (Board of Regents, The University of Texas System, priority 2012, dated 2016)
Where “and” joins values, the source holds several entries; their conditions need not be identical. Equal entries are not always repeated.

Key:
[1] = Study 3: treatment-related toxicity of XCEL (CTCAE version 3.0); settings: in vivo
Source text: (§1) The institutional review board approved this study. […] All patients had clinical examinations, laboratory and CT scan every 2-3 months.
(§2) The principal investigator and two board-certified radiologists reviewed all the CT scan images. CR was defined according to the RECIST criteria as complete disappearance of measurable or none-measurable disease. Effective CR (eCR) was coined to describe normalization of an anatomical structure (e.g. nodes) that cannot regress completely. Confirmed CR included those patients who had CR by meeting the RECIST criteria or had achieved eCR or pathological CR. Near CR (nCR) were defined as almost complete disappearance (95-99%) of measurable disease on CT scan. Relapse free survival (RFS) was defined as the time from first radiologic CR to first recurrence, progression, or death. […] OS was defined as the time from first radiologic CR to death from any cause. Treatment related toxicity was graded in accordance with the National Cancer Institute Common Toxicity Criteria for Adverse Events, version 3.0.

[2] = tested on: unresectable metastatic colorectal cancer; test: Study 3: maintenance XCEL after CR; RFS, PFS, OS; assay type: in vivo, human
Source text: as §1
as §2, with “OS was defined as the time from first radiologic CR to death from any cause.” left out
Continuous variables were summarized using the median (range) and categorical variables were summarized in frequency tables. Patients were censored at the date of last follow-up if their disease had not progressed or if they had not died. The death date was ascertained by searching (ssdi.genealogy.rootsweb.com) using social security numbers or phone follow-up. Therefore, it was possible for censored OS times to be greater than censored RFS and PFS times. Kaplan-Meier estimates for RFS, PFS, and OS were calculated, and group comparisons made using log-rank tests.

[3] = earlier study, cited from earlier work
[4] = Study 1: treatment-related toxicity of XCEL (CTC version 2.0); assay type: in vivo, human
Source text: The radiation was delivered to the target area using 18 MV photons with 3-D conformal planning technique. The dose of radiation was either 35-40 Gy (n=18) or >45 Gy (n=15) with dose radiation missing in one patient. […] Celecoxib was continued with capecitabine to prevent HFS and to improve survival.
All patients were subjected to routine clinical examinations, laboratory analyses, and computed tomography. Patients were seen weekly during radiotherapy if treated on site or every 6-9 weeks with physical examinations, laboratory tests, and computed tomography. Treatment-related toxicity was graded using the National Institutes of Health's Common Toxicities Criteria (CTC) version 2.0. Tumor responses were evaluated using RECIST criteria. […] Overall response rate was defined as the sum of the complete and partial response rates and the tumor control rate was defined as the sum of overall response rates with stable disease rates. The date of death was ascertained through the cancer registry or through a search of patients' social security numbers in the Social Security Death Index (ssdi.genealogy.rootsweb.com).

[5] = Disease-free interval prior to metastasis <6 mo
[6] = Disease-free interval prior to metastasis ≧6 mo
[7] = Response to first-line therapy no
[8] = Response to first-line therapy yes

For `Cc1ccc(-c2cc(C(F)(F)F)nn2-c2ccc(S(N)(=O)=O)cc2)cc1` [XCEL], the “Median mean corpuscular volume (MCV) increase from baseline after XCEL” value [1] was 11.5, the cardiovascular toxicities [1] was “No cardiovascular toxicities were encountered” and the “pathological CR rate (observed)” value ([2]; 1/19) was 5%. For the same molecule, the “two-year RFS” value ([2]; 14 unresected and R1-2 resected patients) was 71%, the “2-year RFS (95% CI)” value ([2]; All patients) was 0.57 (0.39, 0.85) and the “3-year OS (95% CI)” value ([2]; All patients) was 0.79 (0.59, 1.00). The “2-year RFS (95% CI)” value [2, 5] was 0.64 (0 44, 1.00), the “3-year OS (95% CI)” value [2, 5] was 0.75 (0.54, 1.00) and the “2-year RFS (95% CI)” value [2, 6] was 0.50 (0.28, 0.88). For the same molecule, the “3-year OS (95% CI)” value [2, 6] was 0.74 (0.39, 1.00), the “2-year RFS (95% CI)” value ([2]; Extrahepatic no) was 0.52 (0.15, 1.00) and the “3-year OS (95% CI)” value ([2]; Extrahepatic no) was 0.79 (0.66, 1.00). For the same molecule, the “2-year RFS (95% CI)” value ([2]; Extrahepatic yes) was 0.50 (.20, 1.00), the “3-year OS (95% CI)” value ([2]; Extrahepatic yes) was 0.67 (0.55, 1.00) and the “2-year RFS (95% CI)” value ([2]; LDH Abnormal) was 0.33 (0.07, 1.00). The “3-year OS (95% CI)” value ([2]; LDH Abnormal) was 0.50 (0.13, 1.00), the “2-year RFS (95% CI)” value ([2]; LDH Normal) was 0.62 (0.42, 0.91) and the “3-year OS (95% CI)” value ([2]; LDH Normal) was 0.85 (0.68, 1.00). For the same molecule, the “2-year RFS (95% CI)” value ([2]; Maintenance XCEL no) was 0.00, the “3-year OS (95% CI)” value ([2]; Maintenance XCEL no) was 0.38 (0.08, 1.00) and the “2-year RFS (95% CI)” value ([2]; Metastatic Number non-solitary) was 0.60 (0.36, 1.00). For the same molecule, the “3-year OS (95% CI)” value ([2]; Metastatic Number non-solitary) was 0.60 (0 29, 1.00), the “2-year RFS (95% CI)” value ([2]; Metastatic Number solitary) was 0.56 (0.31, 1.00) and the “3-year OS (95% CI)” value ([2]; Metastatic Number solitary) was 0.89 (0.71, 1.00). The “2-year RFS (95% CI)” value ([2]; Metastectomy R0) was 0.20 (0.03, 1.00), the “3-year OS (95% CI)” value ([2]; Metastectomy R0) was 0.60 (0.29, 1.00) and the “2-year RFS (95% CI)” value ([2]; Metastectomy none/R1-2) was 0.71 (0.51, 0.99). The “3-year OS (95% CI)” value ([2]; Metastectomy none/R1-2) was 0.60 (0.80, 1.00), the “3-year PFS” value ([2]; R0-2 resected patients) was 37% and the “two-year RFS” value ([2]; R0 resected patients excluding the one pathological CR patient) was 0%. The “2-year RFS (95% CI)” value ([2]; Radiation no) was 0.69 (1.40, 1.00), the “3-year OS (95% CI)” value ([2]; Radiation no) was 0.75 (0.43, 1.00) and the “2-year RFS (95% CI)” value ([2]; Radiation yes) was 0.50 (0.28, 0.88). For the same molecule, the “3-year OS (95% CI)” value ([2]; Radiation yes) was 0.79 (0.56, 1.00), the “2-year RFS (95% CI)” value [2, 7] was 0.40 (0.25, 1.00) and the “3-year OS (95% CI)” value [2, 7] was 0.65 (0.49, 1.00). For the same molecule, the “2-year RFS (95% CI)” value [2, 8] was 0.58 (0.39, 1.00), the “3-year OS (95% CI)” value [2, 8] was 1.00 and the “2-year RFS (95% CI)” value ([2]; Stage at Diagnosis II/III) was 0.40 (0.19, 0.85). For the same molecule, the “3-year OS (95% CI)” value ([2]; Stage at Diagnosis II/III) was 0.77 (0.53, 1.00), the “2-year RFS (95% CI)” value ([2]; Stage at Diagnosis IV) was 0.78 (0.55, 1.00) and the “3-year OS (95% CI)” value ([2]; Stage at Diagnosis IV) was 0.83 (0.58, 1.00). For the same molecule, the “2-year RFS (95% CI)” value ([2]; Tumor size <8 cm) was 0.62 (0.39, 1.00), the “3-year OS (95% CI)” value ([2]; Tumor size <8 cm) was 1.00 and the “2-year RFS (95% CI)” value ([2]; Tumor size ≧8 cm) was 0.40 (0.14, 1.00). For the same molecule, the “3-year OS (95% CI)” value ([2]; Tumor size ≧8 cm) was 0.60 (0.29, 1.00), the “Two-year RFS” value ([2]; all 19 patients) was 57% and the “median RFS” value ([2]; all 19 patients) was “not reached”. For the same molecule, the “CEA or CA19.9 during CR” value ([2]; all patients with elevated serum CEA or CA19.9) was “normalized”, the “3-year PFS” value ([2]; confirmed CR patients) was 100% and the CR ([2]; eight of nine first-line irinotecan responders, XCEL alone or with radiation) was 88%. For the same molecule, the “two-year RFS” value ([2]; five R0 resected patients) was 20%, the “estimated 3-year survival rate” value ([2]; from CR) was 79% and the “four year OS” value ([2]; from CR, maintenance XCEL) was 93%. The “median OS” value ([2]; from XCEL) was 51.9 months, the “estimated 3-year survival rate” value ([2]; from diagnosis) was 95% and the “median OS” value ([2]; from onset of metastasis) was 73.3 months. For the same molecule, the “median time from CR to relapse” value ([2]; in vivo) was 13.1 months, the “relapse while on XCEL” value ([2]; maintenance XCEL) was “no patient relapsed while on XCEL” and the “Two-year RFS estimate” value ([2]; maintenance XCEL group) was 73%. For the same molecule, the “3-year PFS” value ([2]; unconfirmed CR patients) was 0%, the “3 year RFS” value ([2]; whole cohorts) was 57% and the “Two-year RFS estimate” value ([2]; without maintenance XCEL) was 0%. The “incidence of grade ⅔ HFS” value ([3]; capecitabine 1000 mg/m2/d bid (Lin et al., 2002)) was 12.5%, the “grade ¾ diarrhea” value ([3]; versus capecitabine alone (Lin et al., 2002)) was “reduced” and the “Mild serum creatinine elevations” value ([4]; 3 patients after 14 to 32 months of XCEL, reversible upon discontinuation of celecoxib) was 1.6 to 2.0 mg/dL. For the same molecule, the “grade ⅔ HFS” value ([4]; expanded study with longer follow up) was 17%, the “gastrointestinal bleeding, other cardiovascular events, deaths” value ([4]; in vivo) was “No gastrointestinal bleeding, other cardiovascular events, or deaths were noted” and the “median time to HFS peak” value ([4]; n=12) was 6.0 months and 6 months. The “median time to HFS onset” value ([4]; n=17) was 3.8 months, the “Incidence of grade 1 HFS” value ([4]; n=65) was 14% and the “Incidence of grade 2 HFS” value ([4]; n=65) was 15%. The “Incidence of grade 3 HFS” value ([4]; n=65) was 2%, the “grade ¾ lymphopenia” value ([4]; n=65) was 24% and the “lymphopenia of all grades” value ([4]; n=65) was 56%.
